Measurements as given in article PMC11370402 (bioRxiv, 2024).

Test system: human tracheobronchial epithelial cells (hTECs) basal-ESC growth
Assay: hTEC growth in submerged 2D culture
Assay type: cell-based

O=c1ncn2nc(Sc3ccc(F)cc3F)ccc2c1-c1c(Cl)cccc1Cl [NuP-401, VX-745]
effect on basal cell growth: not found
